Data published in EP0224257A1, “Stabilized benzimidazole derivatives” (SYNTEX (U.S.A.) INC., priority 1985, dated 1987).

Assay: Blood plasma levels after oral administration to dogs
Format: in vivo
Conditions: 10 mg/kg, compared with oxfendazole in commercially available form
Procedure: Dogs were administered orally either amorphous or crystalline oxfendazole at a dose of 10 mg/kg.
Blood samples were drawn and analyzed before administration and on days 1, 2, 3, 7, 10 and 13 following administration. The area under the curve was calculated for plasma concentration vs time profile.

plasma level of oxfendazole: higher plasma level
SMILES: COC(=O)Nc1nc2ccc([S+]([O-])c3ccccc3)cc2[nH]1 (stereo not shown) [amorphous oxfendazole, methyl 5-(phenylsulfinyl)-1H-benzimidazol-2-yl carbamate]
